The source of these data is PMC7830900, “Cinnamoyl Sucrose Esters as Alpha Glucosidase Inhibitors for the Treatment of Diabetes” (Molecules, 2021).

In one assay the target is yeast α-glucosidase (Saccharomyces cerevisiae, UniProt P53341). In words: In vitro α-glucosidase inhibition assay (PNPG substrate). The assay is classed as biochemical. Also on record: inhibition: dose or concentration left out as unconfirmed. Conditions: for IC50: dose-response 0–25 µg/mL. The protocol: α-Glucosidase inhibition was tested according to previously reported methods with some modifications. […] Fifty microliters of yeast α-glucosidase enzyme solution (0.5 U/mL in phosphate buffer) was added to the wells. The plate was incubated at 37 °C for 15 min. Next, 25 µL of 2.5 mM PNPG (4-nitrophenyl α-D-glucopyranoside) substrate solution (in phosphate buffer) was added. The microplate was incubated at 37 °C for another 15 min. The absorbance was then measured using a microplate reader at 405 nm. The percentage inhibition was calculated using the formula: % inhibition = ΔAbscontrol−ΔAbssample/ΔAbscontrol × 100
Chain of yeast α-glucosidase (P53341 whole entry): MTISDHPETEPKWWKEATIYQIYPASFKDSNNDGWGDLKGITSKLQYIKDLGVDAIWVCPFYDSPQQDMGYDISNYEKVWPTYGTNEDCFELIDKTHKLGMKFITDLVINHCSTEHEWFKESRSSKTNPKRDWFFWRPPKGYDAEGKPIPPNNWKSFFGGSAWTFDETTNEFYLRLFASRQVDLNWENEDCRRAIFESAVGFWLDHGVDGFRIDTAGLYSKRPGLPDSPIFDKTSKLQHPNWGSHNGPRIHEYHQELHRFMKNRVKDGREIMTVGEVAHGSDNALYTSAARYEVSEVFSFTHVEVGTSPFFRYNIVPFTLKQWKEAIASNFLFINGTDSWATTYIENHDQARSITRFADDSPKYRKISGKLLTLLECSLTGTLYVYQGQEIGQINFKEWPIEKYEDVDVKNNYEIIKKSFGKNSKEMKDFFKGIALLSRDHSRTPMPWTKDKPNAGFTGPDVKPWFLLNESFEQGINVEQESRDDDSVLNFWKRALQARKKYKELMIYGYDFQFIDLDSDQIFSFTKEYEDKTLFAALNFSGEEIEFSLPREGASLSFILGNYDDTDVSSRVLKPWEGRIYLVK
All measurements were performed in triplicates and the values. The IC50 values for selected CSEs were calculated by plotting a dose-response curve for a range of concentrations of the CSEs (0–25 µg/mL) for the selected CSEs (data not shown) and regression analysis was done using Graphpad Prism software using the in-built function.

The target in assay [1] is T1, porcine pancreatic α-amylase (Sus scrofa, UniProt P00690).
T1 sequence (P00690 16-511): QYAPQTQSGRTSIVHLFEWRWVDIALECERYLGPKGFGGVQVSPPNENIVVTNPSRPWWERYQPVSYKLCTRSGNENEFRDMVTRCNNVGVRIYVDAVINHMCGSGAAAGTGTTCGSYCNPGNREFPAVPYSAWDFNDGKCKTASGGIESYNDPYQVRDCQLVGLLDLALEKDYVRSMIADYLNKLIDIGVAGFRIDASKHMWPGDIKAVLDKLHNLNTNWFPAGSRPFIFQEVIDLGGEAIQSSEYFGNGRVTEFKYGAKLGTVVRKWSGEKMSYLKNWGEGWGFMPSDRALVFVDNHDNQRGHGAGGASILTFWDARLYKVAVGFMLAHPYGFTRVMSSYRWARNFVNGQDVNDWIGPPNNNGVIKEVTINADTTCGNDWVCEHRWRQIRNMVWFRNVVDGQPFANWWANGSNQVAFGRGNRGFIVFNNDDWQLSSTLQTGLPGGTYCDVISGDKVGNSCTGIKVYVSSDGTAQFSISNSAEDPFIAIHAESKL
The assay can be described thus: In vitro α-amylase inhibition assay (starch/DNSA). In kind it is biochemical. The arrangement: inhibition: dose or concentration left out as unconfirmed. The note with it: for IC50: dose-response 0–25 µg/mL. The method, then:
α-amylase inhibition was tested using previously reported methods […] The tubes were then incubated at 37 °C for 10 min. Next, 450 µL of 0.5% starch solution was added and the tubes were incubated for a further 20 min at 37 °C. Finally, 500 µL of Dinitro Salicylic Acid (DNSA) reagent was added and the tubes were placed in a boiling water bath for 15 min. The absorbance of the tubes was recorded at 540 nm and the % inhibition calculated using the same formula as for α-glucosidase, % inhibition = ΔAbscontrol−ΔAbssample/ΔAbscontrol × 100
All measurements were performed in triplicates and the values.

The test system of another assay is STZ-treated mice. The arrangement: method as in earlier work. The note with it: STZ-treated mice compared to control (starch only) mice; cited from earlier work.
Setting [2] is: 25 μg/mL, mean ± SD, n = 3, less than 5% inhibition = No Significant Activity.

Regarding `CC1(C)OC[C@@]2(O[C@H]3O[C@@H]4COC(C)(C)O[C@H]4[C@H](O)[C@H]3O1)O[C@H](COC(=O)/C=C/c1ccccc1)[C@@H](O)[C@@H]2O` [CSE 2], on yeast α-glucosidase (setting [2]), the “% α-glucosidase inhibition” value was “did not show significant inhibition activity”. In addition, the “% α-amylase inhibition” value in assay [1] (setting [2]) is reported as “did not show significant inhibition activity”.
Regarding `CC1(C)OC[C@@]2(O[C@H]3O[C@@H]4COC(C)(C)O[C@H]4[C@H](O)[C@H]3O1)O[C@H](COC(=O)/C=C/c1ccccc1)[C@@H](O)[C@@H]2OC(=O)/C=C/c1ccccc1` [CSE 3], the inhibition (in general, the change of the read-out against control, counted positive when it falls) at yeast α-glucosidase was found to be 35 ± 5%; in assay [1], 9 ± 5%.
The matching figures for `CC1(C)OC[C@@]2(O[C@H]3O[C@@H]4COC(C)(C)O[C@H]4[C@H](O)[C@H]3O1)O[C@H](COC(=O)/C=C/c1ccccc1)[C@@H](OC(=O)/C=C/c1ccccc1)[C@@H]2OC(=O)/C=C/c1ccccc1` [CSE 4]: 32 ± 3% and 8 ± 4%.
On to `CC1(C)OCC2OC3OC4(COC(C)(C)OC3C(OC(=O)C=Cc3ccccc3)C2O1)OC(COC(=O)C=Cc1ccccc1)C(OC(=O)C=Cc1ccccc1)C4OC(=O)C=Cc1ccccc1` (stereo not shown) [CSE 5], for which the inhibition against yeast α-glucosidase turned out to be 77 ± 5%; in assay [1], 98 ± 2%. Besides, the “α-glucosidase IC50, fold lower than acarbose” value at yeast α-glucosidase was “over 36 fold”. The IC50 – broadly, the concentration at which inhibition is half-maximal – on yeast α-glucosidase (mean ± SD, n = 3) stood at 9 ± 3 µM; in assay [1] (mean ± SD, n = 3), 1 ± 0.2 µM. In assay [1], the “α-amylase IC50, fold less than acarbose” value is “five-fold less”.
With `CC(=O)O[C@@H]1[C@H]2OC(C)(C)OC[C@@]3(O[C@H]2O[C@@H]2COC(C)(C)O[C@@H]12)O[C@H](COC(=O)/C=C/c1ccccc1)[C@@H](OC(C)=O)[C@@H]3OC(=O)/C=C/c1ccccc1` [CSE 6], the inhibition against yeast α-glucosidase came out at 46 ± 3%; in assay [1] it was 14 ± 4%.
The matching figures for `CC(=O)O[C@@H]1[C@H]2OC(C)(C)OC[C@@]3(O[C@H]2O[C@@H]2COC(C)(C)O[C@@H]12)O[C@H](COC(=O)/C=C/c1ccccc1)[C@@H](OC(=O)/C=C/c1ccccc1)[C@@H]3OC(=O)/C=C/c1ccccc1` [CSE 7]: 46 ± 2% and 13 ± 7%.
Consider `O=C(/C=C/c1ccccc1)OC[C@H]1O[C@@](CO)(O[C@H]2O[C@H](CO)[C@@H](O)[C@H](O)[C@H]2O)[C@@H](OC(=O)/C=C/c2ccccc2)[C@@H]1OC(=O)/C=C/c1ccccc1` [CSE 8], for which the inhibition against yeast α-glucosidase was determined as 34 ± 4%; in assay [1], 16 ± 2%. Also, on yeast α-glucosidase (25 μg/mL, selectivity α-glucosidase over α-amylase), the “% α-glucosidase inhibition relative to % α-amylase inhibition” value is “higher inhibition of α-glucosidase than α-amylase”.
As to `O=C(C=Cc1ccccc1)OCC1OC(CO)(OC2OC(CO)C(O)C(OC(=O)C=Cc3ccccc3)C2O)C(OC(=O)C=Cc2ccccc2)C1OC(=O)C=Cc1ccccc1` (stereo not shown) [CSE 9], on yeast α-glucosidase, the inhibition worked out at 74 ± 9% and the “α-glucosidase IC50, fold lower than acarbose” value is “over 36 fold”. The same compound yielded an IC50 at yeast α-glucosidase (mean ± SD, n = 3) of 9 ± 3 µM. Moreover, in assay [1], the inhibition is 99 ± 1% and the “α-amylase IC50, fold less than acarbose” value is listed as “five-fold less”. In addition, the IC50 in assay [1] (mean ± SD, n = 3) amounted to 0.8 ± 0.1 µM.
For the compound `COc1cc(/C=C/C(=O)OC[C@H]2O[C@@](CO)(O[C@H]3O[C@H](CO)[C@@H](O)[C@H](OC(=O)/C=C/c4ccc(O)c(OC)c4)[C@H]3O)[C@@H](OC(=O)/C=C/c3ccc(O)c(OC)c3)[C@@H]2OC(=O)/C=C/c2ccc(O)c(OC)c2)ccc1O` [FSE 1], the blood glucose excursion result in the assay with STZ-treated mice is given as “significantly reduced blood glucose excursion”.
For `C[C@H]1O[C@H](O[C@H]2[C@H](O)[C@@H](O)[C@@H](O[C@H]3[C@H](O)[C@@H](O)C(O)O[C@@H]3CO)O[C@@H]2CO)[C@H](O)[C@@H](O)[C@@H]1N[C@H]1C=C(CO)[C@@H](O)[C@H](O)[C@H]1O` (stereo partly shown) [acarbose, reference compound], the inhibition against yeast α-glucosidase is 27 ± 4%. In assay [1] (read-out: % α-amylase inhibition), the inhibition at 25 µg/mL was determined as 93 ± 2%.
